Experimental data as given in patent US11591337B2, “Substituted [1,2,4]triazolo[4,3-a]pyrazines as modulators of mGlu5 receptors” (Recordati Industria Chimica e Farmaceutica S.p.A., priority 2018, dated 2023).

What was measured:
mGlu5 receptor [1] = biological target: T1, mGlu5 receptor (Homo sapiens, UniProt P41594); assay: Functional activity at mGlu5 receptor as calcium fluorescence measurements; format: cell-based
T1 construct: Human mGluR5 open reading frame (ORF), comprehensive of the stop codon, were cloned into the pcDNA4/TO/myc-His™ A vector; expressed in transfected cells
T1 sequence (P41594 21-1212): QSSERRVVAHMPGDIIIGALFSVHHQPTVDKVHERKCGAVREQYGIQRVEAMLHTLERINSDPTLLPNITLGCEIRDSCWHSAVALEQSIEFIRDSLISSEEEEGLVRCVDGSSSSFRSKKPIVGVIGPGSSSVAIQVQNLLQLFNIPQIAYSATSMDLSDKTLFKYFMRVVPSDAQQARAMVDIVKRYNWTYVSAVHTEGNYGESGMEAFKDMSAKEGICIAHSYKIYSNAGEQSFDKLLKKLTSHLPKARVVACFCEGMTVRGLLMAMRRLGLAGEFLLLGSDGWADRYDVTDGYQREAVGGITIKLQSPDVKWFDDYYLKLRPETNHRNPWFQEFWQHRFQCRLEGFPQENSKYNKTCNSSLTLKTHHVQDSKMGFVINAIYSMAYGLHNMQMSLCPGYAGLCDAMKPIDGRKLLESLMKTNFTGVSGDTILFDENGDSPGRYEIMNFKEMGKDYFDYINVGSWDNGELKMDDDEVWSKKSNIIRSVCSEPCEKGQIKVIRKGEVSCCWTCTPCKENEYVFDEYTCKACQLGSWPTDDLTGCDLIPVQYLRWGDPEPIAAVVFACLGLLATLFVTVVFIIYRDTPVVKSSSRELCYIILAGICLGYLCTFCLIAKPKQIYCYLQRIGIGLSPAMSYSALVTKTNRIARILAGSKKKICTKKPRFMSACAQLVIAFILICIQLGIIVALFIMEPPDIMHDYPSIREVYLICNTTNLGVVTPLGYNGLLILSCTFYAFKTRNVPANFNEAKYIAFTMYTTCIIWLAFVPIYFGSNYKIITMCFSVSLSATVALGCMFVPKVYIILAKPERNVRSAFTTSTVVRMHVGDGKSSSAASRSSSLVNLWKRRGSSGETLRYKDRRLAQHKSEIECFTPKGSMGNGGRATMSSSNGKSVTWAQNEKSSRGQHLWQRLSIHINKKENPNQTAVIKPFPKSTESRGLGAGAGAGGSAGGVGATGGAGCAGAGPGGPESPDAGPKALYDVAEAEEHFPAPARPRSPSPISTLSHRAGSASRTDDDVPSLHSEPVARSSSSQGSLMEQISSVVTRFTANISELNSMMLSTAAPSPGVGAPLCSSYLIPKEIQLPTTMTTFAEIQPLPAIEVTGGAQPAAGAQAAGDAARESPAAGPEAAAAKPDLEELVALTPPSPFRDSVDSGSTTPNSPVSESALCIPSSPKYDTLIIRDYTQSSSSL
Source text: (§1) Cell lines stably transfected were generated using inducible expression vectors encoding human mGlu5 receptor using the Tetracycline-Regulated Expression system (T-REx™ system, Invitrogen, Life Technologies). Human mGluR5 open reading frame (ORF), comprehensive of the stop codon, were cloned into the pcDNA4/TO/myc-His™ A vector, carrying the TetO2. The insertion site was HindIII-PstI for mGluR5 receptors. The obtained constructs were then transfected into the T-REx CHO™ cell line using the FuGENE protocol (Roche); the CHO T-REx™ cell line stably expresses the Tet repressor (from the pcDNA6/TR plasmid) under the selection of blasticidin, 10 μg/ml. Stable clones were obtained selecting with zeocin 1 mg/ml and maintaining in ULTRA CHO medium (LONZA) supplemented with dialyzed FBS, zeocin, blasticidin, at 37° C., in an atmosphere of 5% CO2. The expression of h-mGluR5 receptors was de-repressed with 1 μg/ml tetracycline for 18 h before binding experimentation, while the expression of h-mGluR5 receptors was derepressed respectively with 3 ng/ml and 10 ng/ml tetracycline for 18 h before calcium fluorescence experimentation.
Cells were seeded into black-walled, clear-bottom, 96-well plates at a density of 80000 cell/well, in RPMI (without Phenol Red, without L-glutamine; Gibco LifeTechnologies, CA) supplemented with 10% dialyzed FBS. Following 18-h incubation with tetracycline, the cells were loaded with 2 mM Ca^2+- sensitive fluorescent dye Fluo-4/AM (Molecular Probes) in Hanks' balanced saline solution (HBSS, Gibco LifeTechnologies, CA) with […] Hepes (Sigma) and 2.5 mM probenecid (Sigma), for 1 h at 37° C. The cells were washed three times with HBSS to remove extracellular dye. Fluorescence signals were measured by using the fluorescence microplate reader Flexstation III (Molecular Devices) at sampling intervals of 1.5 s for 60 s.
The antagonist potency was determined using the EC80 of the quisqualate used as agonist and the potentiation of mGlu5 activation was determined using the EC20 of the agonist (quisqualate or glutamate). […]

mGlu5 receptor [2] = biological target: T1, mGlu5 receptor; assay: Radioligand binding assay ([3H]MPEP) at cloned mGluR5; conditions: CHO T-REx h-mGluR5 cells, 4 nM [3H]MPEP, 60 min at 25° C.; read-out: affinity (Ki) for mGlu5 receptor
Source text: as §1, with “Stable clones were obtained selecting with zeocin 1 mg/ml and maintaining in ULTRA CHO medium (LONZA) supplemented with dialyzed FBS, zeocin, blasticidin, at 37° C., in an atmosphere of 5% CO2.” left out
Affinity at transmembrane glutamate metabotropic mGluR5 receptor subtypes was evaluated according to the methods of Anderson (Anderson et al., J Pharmacol. Exp. Ther., (2002), Vol. 303(3), pp. 1044-51), with some modifications. […] Non-specific binding was determined in the presence of 10 μM MPEP. […] The filters were then washed with cold buffer and the radioactivity retained on the filters was counted by liquid scintillation spectrometry (Betaplate 1204 BS-Wallac). […]

Row | Structure (SMILES) | EC50 (mGlu5 receptor [1]; potentiation of mGlu5 activation at EC20 of the agonist (quisqualate or glutamate), read-out: positive allosteric activity EC50) [µM] | Ki (mGlu5 receptor [2]) [µM] | type of allosteric modulation (mGlu5 receptor [1]) | IC50 (mGlu5 receptor [1]; antagonist potency at EC80 of quisqualate, read-out: negative allosteric modulation activity IC50) [µM]
1 | O=C(c1cccc(Cl)c1)N1CCn2c(C#Cc3cccc(Cl)c3)nnc2C1 [Example 8, (3-Chlorophenyl)-[3-[2-(3-chlorophenyl)ethynyl]-6,8-dihydro-5H-[1,2,4]triazolo[4,3-a]pyrazin-7-yl]methanone] | 0.294 | 0.0338 |  | 
2 | CCN(C)C(=O)N1CCn2c(C#Cc3cccc(C)c3)nnc2C1 [Example 40, N-Ethyl-N-methyl-3-[2-(m-tolyl)ethynyl]-6,8-dihydro-5H-[1,2,4]triazolo[4,3-a]pyrazine-7-carboxamide] |  | 0.032 | negative allosteric modulator | 0.0609
